Earlier results on two compounds are cited in patent publication US20210290563A1, “COMPOSITIONS AND METHODS FOR TREATING NEUROP[…]” (BIONICHE GLOBAL DEVELOPMENT, LLC, priority 2017, published 2021).

Like-named read-outs stand apart in the source and are kept apart here.

Experiment in data set [1]: not given
This is another data set of the same source.

Regarding `CC(C)c1cccc(C(C)C)c1OCOP(=O)(O)O` [Fospropofol disodium], the solubility in water entry is “water-soluble”.
In the case of `CC(C)c1cccc(C(C)C)c1O` [Propofol, 2,6-diisopropylphenol], the solubility in water result is given as “only sparingly soluble in water”. The bioavailability estimates in data set [1] (buccal administration) is reported as around 50%. The bioavailability estimates in data set [1] (intramuscular administration) is around 93%. Besides, the bioavailability estimates in data set [1] (intranasal administration) was 25-50%. In addition, the bioavailability estimates in data set [1] (intravenous administration) is reported as around 100%. The bioavailability estimates in data set [1] (oral administration) is given as 13-27%. The bioavailability estimates in data set [1] (rectal administration) is around 25%. Besides, the bioavailability estimates in data set [1] (transdermal administration) is around 10%.
